According to publication PMC4965013, “Open Source Drug Discovery with the Malaria Box Compound Collection for Neglected Diseases and Beyond” (PLoS Pathogens, 2016):

Assays:
[1] = system: P. falciparum 3D7 trophozoites; assay: Metabolomic fingerprint profiling LC-MS; format: cell-based, Plasmodium falciparum; set-up: UDP-D-glucose / ADP-D-glucose: unit not given here; settings: for Acetyllysine / N-acetyl-L-ornithine / N-carbamoyl-L-aspartate / NADPH / dAMP / dCMP / dTDP / dTMP / dTTP / dihydroorotate / orotate / DLH / DLS/SDL/SID / PD / PEE / PVNF / 3-phosphoglycerate / ADP-D-glucose / ATP / CDP / D-sedoheptulose-1/7-phosphate / FAD / GMP / NAD+ / NADP+ / Octoluse Bisphosphate / Pyroglutamic acid / UDP-D-glucose / UDP-D-glucuronate / UDP-N-acetyl-glucosamine / UDP / UMP / UTP / a-ketoglutarate / citrate/isocitrate / cytidine / dATP / dGMP/AMP / fumarate / glucose-1/6-phosphate / glycerate / guanine / guanosine / hypoxanthine / indole / inosine / nicotinate / ornithine / phosphoenolpyruvate / pyruvate / ribose-phosphate / sarcosine/alanine / sn-glycerol-3-phosphate / succinate/methylmalonic acid / uridine / xanthosine: S2 Table Metabolomics; for Acetyllysine: metabolite Acetyllysine; for N-acetyl-L-ornithine: metabolite N-acetyl-L-ornithine; for N-carbamoyl-L-aspartate: metabolite N-carbamoyl-L-aspartate; for NADPH: metabolite NADPH; for dAMP: metabolite dAMP; for dCMP: metabolite dCMP; for dTDP: metabolite dTDP; for dTMP: metabolite dTMP; for dTTP: metabolite dTTP; for dihydroorotate: metabolite dihydroorotate; for orotate: metabolite orotate; for DLH: peptide DLH; for DLS/SDL/SID: peptide DLS/SDL/SID; for PD: peptide PD; for PEE: peptide PEE; for PVNF: peptide PVNF; for 3-phosphoglycerate: metabolite 3-phosphoglycerate; for ADP-D-glucose: metabolite ADP-D-glucose; for ATP: metabolite ATP; for CDP: metabolite CDP; for CDP / D-sedoheptulose-1/7-phosphate / GMP / Octoluse Bisphosphate / UDP / UMP / UTP / citrate/isocitrate / dGMP/AMP / fumarate / glucose-1/6-phosphate / glycerate / guanine / guanosine / inosine / pyruvate / sarcosine/alanine / succinate/methylmalonic acid / uridine / xanthosine: change in metabolite level after compound treatment; for D-sedoheptulose-1/7-phosphate: metabolite D-sedoheptulose-1/7-phosphate; for FAD: metabolite FAD; for GMP: metabolite GMP; for NAD+: metabolite NAD+; for NADP+: metabolite NADP+; for Octoluse Bisphosphate: metabolite Octoluse Bisphosphate; for Pyroglutamic acid: metabolite Pyroglutamic acid; for UDP-D-glucose: metabolite UDP-D-glucose; for UDP-D-glucuronate: metabolite UDP-D-glucuronate; for UDP-N-acetyl-glucosamine: metabolite UDP-N-acetyl-glucosamine; for UDP: metabolite UDP; for UMP: metabolite UMP; for UTP: metabolite UTP; for a-ketoglutarate: metabolite a-ketoglutarate; for citrate/isocitrate: metabolite citrate/isocitrate; for cytidine: metabolite cytidine; for dATP: metabolite dATP; for dGMP/AMP: metabolite dGMP/AMP; for fumarate: metabolite fumarate; for glucose-1/6-phosphate: metabolite glucose-1/6-phosphate; for glycerate: metabolite glycerate; for guanine: metabolite guanine; for guanosine: metabolite guanosine; for hypoxanthine: metabolite hypoxanthine; for indole: metabolite indole; for inosine: metabolite inosine; for 2_3-Diphosphoglyceric acid / 4-phosphopantothenate / 6-phospho-D-gluconate / FMN / IMP / Pyrophosphate / Sedoheptoluse bisphosphate / cyclic-AMP / glutathione disulfide / lactate / myo-inositol: metabolite level change after treatment; for nicotinate: metabolite nicotinate; for ornithine: metabolite ornithine; for phosphoenolpyruvate: metabolite phosphoenolpyruvate; for pyruvate: metabolite pyruvate; for ribose-phosphate: metabolite ribose-phosphate; for sarcosine/alanine: metabolite sarcosine/alanine; for sn-glycerol-3-phosphate: metabolite sn-glycerol-3-phosphate; for succinate/methylmalonic acid: metabolite succinate/methylmalonic acid; for uridine: metabolite uridine; for xanthosine: metabolite xanthosine
P. falciparum = assay: EC50 listed in S2 Table Metabolomics (used to set the concentration tested); format: cell-based; settings: Plasmodium falciparum; EC50 used for Factor_XEC50 in metabolomics; read-out: EC50_nM

## Cc1ccc(Nc2nc(NCCO)c3ccccc3n2)cc1C [MMV001038]
[1]
  Acetyllysine: -1.736
  N-acetyl-L-ornithine: -0.8338
  N-carbamoyl-L-aspartate: 2.2667
  NADPH: 1.133
  dAMP: 0.6638
  dCMP: -0.6324
  dTDP: 0.5044
  dTMP: 1.028
  dTTP: -1.24
  dihydroorotate: 2.22
  orotate: -0.01519
  DLH: -3.038
  DLS/SDL/SID: -1.162
  PD: -0.2116
  PEE: -5.814
  PVNF: -1.547
  3-phosphoglycerate: 0.5584
  ADP-D-glucose: 0.41
  ATP: -0.8212
  CDP: -0.1382
  D-sedoheptulose-1/7-phosphate: 0.3347
  FAD: 0.9327
  GMP: 0.5554
  NAD+: 0.6377
  NADP+: 1.018
  Octoluse Bisphosphate: 0.3963
  Pyroglutamic acid: -0.8623
  UDP-D-glucose: 0.149
  UDP-D-glucuronate: 0.1087
  UDP-N-acetyl-glucosamine: 0.4035
  UDP: 0.7043
  UMP: -0.2063
  UTP: -0.5445
  a-ketoglutarate: -0.3007
  citrate/isocitrate: -0.768
  cytidine: 0.3191
  dATP: -1.248
  dGMP/AMP: 0.4665
  fumarate: -0.3966
  glucose-1/6-phosphate: 3.518
  glycerate: 0.8355
  guanine: -0.1055
  guanosine: -0.4181
  hypoxanthine: 0.2457
  indole: -0.2391
  inosine: 0.4136
  2_3-Diphosphoglyceric acid: 0.3981
  4-phosphopantothenate: 0.7744
  6-phospho-D-gluconate: -0.4519
  FMN: 0.7846
  IMP: 0.7773
  Pyrophosphate: -0.6549
  Sedoheptoluse bisphosphate: 0.6681
  cyclic-AMP: 0.8549
  glutathione disulfide: 0.7162
  lactate: 1.5312
  myo-inositol: 3.154
  nicotinate: -0.4211
  ornithine: -0.2093
  phosphoenolpyruvate: 0.02444
  pyruvate: 0.2652
  ribose-phosphate: 0.4889
  sarcosine/alanine: -0.4284
  sn-glycerol-3-phosphate: 0.01718
  succinate/methylmalonic acid: -0.401
  uridine: 0.3457
  xanthosine: -1.776
P. falciparum
  EC50: 428 nM

## CCc1c(C)c(=N)c2ccccc2n1C [MMV006278]
[1]
  Acetyllysine: -0.2738
  N-acetyl-L-ornithine: -0.3387
  N-carbamoyl-L-aspartate: 0.04339
  NADPH: -0.1545
  dAMP: -0.2592
  dCMP: 0.05199
  dTDP: -0.2955
  dTMP: -0.278
  dTTP: 0.1315
  dihydroorotate: 0.1029
  orotate: -0.07528
  DLH: 0.1151
  DLS/SDL/SID: -0.1067
  PD: -0.1923
  PEE: 0.09363
  PVNF: -0.2186
  3-phosphoglycerate: -0.1758
  ADP-D-glucose: -0.3132
  ATP: -0.07819
  CDP: -0.1774
  D-sedoheptulose-1/7-phosphate: -0.2519
  FAD: -0.07776
  GMP: -0.3571
  NAD+: -0.07608
  NADP+: -0.2182
  Octoluse Bisphosphate: -0.2383
  Pyroglutamic acid: -0.07564
  UDP-D-glucose: -0.16
  UDP-D-glucuronate: -0.1623
  UDP-N-acetyl-glucosamine: -0.2266
  UDP: -0.2326
  UMP: -0.3171
  UTP: 0.05042
  a-ketoglutarate: 0.05252
  citrate/isocitrate: 0.03563
  cytidine: -0.182
  dATP: 0.1448
  dGMP/AMP: -0.3534
  fumarate: -0.3107
  glucose-1/6-phosphate: -0.535
  glycerate: -0.4983
  guanine: -0.2094
  guanosine: -0.1411
  hypoxanthine: 0.04937
  indole: -0.04764
  inosine: -0.3767
  2_3-Diphosphoglyceric acid: -0.2671
  4-phosphopantothenate: -0.1093
  6-phospho-D-gluconate: -0.1749
  FMN: 0.06658
  IMP: -0.1794
  Pyrophosphate: -0.2417
  Sedoheptoluse bisphosphate: -0.1437
  cyclic-AMP: -0.03098
  glutathione disulfide: -0.1999
  lactate: 0.04854
  myo-inositol: 0.07173
  nicotinate: -0.02818
  ornithine: 0.04171
  phosphoenolpyruvate: -0.1381
  pyruvate: -0.06156
  ribose-phosphate: 0.02401
  sarcosine/alanine: -0.2797
  sn-glycerol-3-phosphate: -0.6565
  succinate/methylmalonic acid: -0.7483
  uridine: -0.02002
  xanthosine: -0.104
P. falciparum
  EC50: 378 nM
